Results from publication PMC11549390, “Activity, structure, and diversity of Type II proline-rich antimicrobial peptides from insects” (EMBO Reports, 2024).
Like-named read-outs stand apart in the source and are kept apart here. No end group written: not given here.

How the values were obtained:
[1] = system: E. coli strain BL21 cells transformed with the pRXG(UGA) plasmid; assay: Stop codon readthrough assay (RFP-UGA-GFP reporter, drop-diffusion); assay type: cell-based, Escherichia coli; conditions: subinhibitory concentrations, M9 agar, 2 µL of 2 mM peptide, 37 °C 16 h, three independent experiments
Protocol: Figure 4 Newly identified PrAMPs cause stop codon readthrough in bacterial cells. Top: In-frame fused genes encoding the reporter proteins RFP and GFP in the pRXG plasmid (Monk et al, [2017]) are separated by an UGA stop codon. […] Api and the modified Api137 (Berthold et al, [2013]) were spotted for comparison. […] Shown are representative plates from three independent experiments.
Stop codon readthrough activity of PrAMPs was determined as previously described (Mangano et al, [2023]). Briefly, E. coli strain BL21 cells transformed with the pRXG(UGA) plasmid (Monk et al, [2017]) were plated as described above for the drop-diffusion test, except that the bacterial lawn was formed on M9 medium/agar plates supplemented with 50 µg/ml of Kan and 0.2% glucose. Peptide solutions (2 µL of 2 mM stocks) were applied. The plates were incubated at 37 °C for 16 h and imaged in Cy2 (GFP) or Cy3 (RFP) channels using the BioRad ChemiDoc Touch imaging system. The images were processed using Image Lab software (BioRad).

K. pneumoniae AR-0112 = assay type: cell-based, Klebsiella pneumoniae
Protocol: (§1) The minimal inhibitory concentration (MIC) test for the E. coli laboratory strain BL21 and the K. pneumoniae multi-drug-resistant clinical strain AR-0112 (CDC and FDA Antibiotic Resistance Isolate Bank) was performed using the broth microdilution method, adapted from a previously described procedure (Wiegand et al, [2008]). The MIC tests were conducted either in 33% Tryptic Soy Broth (TSB) (Berthold et al, [2013]), or in RPMI/Serum (prepared by combining Roswell Park Memorial Institute medium 1640, Mueller Hinton Broth, and fetal bovine serum in the proportion 100:5:20, v/v/v) (Belanger et al, [2020]).

E. coli BL21 = assay type: cell-based, Escherichia coli
Protocol: as §1

Compound	MIC (K. pneumoniae AR-0112; AR-0112) [µM]	MIC (E. coli BL21; BL21) [µM]	other results
O=C(N[C@H](CO)[C@H](O)c1ccc([N+](=O)[O-])cc1)C(Cl)Cl [chloramphenicol]	–	–	Induction of stop codon readthrough (GFP halo) [1]: does not induce stop codon readthrough
AHKPVYVPPPRPPHPRL [Nme2]	2	–	–
ALNRPVYVPPPRPPHPRL [Mge1]	1	–	–
GKPNKPRPAPIKPRPPHPRL [Pdi2]	–	0.25	–
GNRPNIPTYIPRPRPPHPRL [Fva1]	–	–	MIC (E. coli BL21; E. coli BL21, 33% TSB, broth microdilution, performed in triplicate): 0.125 µM; MIC (E. coli BL21; E. coli BL21, RPMI/Serum (RPMI 1640:Mueller Hinton Broth:fetal bovine serum 100:5:20), broth microdilution, performed in triplicate): 0.25 µM; MIC (K. pneumoniae AR-0112; K. pneumoniae AR-0112 (multi-drug-resistant clinical strain), 33% TSB, broth microdilution, performed in triplicate): 1 µM; MIC (K. pneumoniae AR-0112; K. pneumoniae AR-0112, RPMI/Serum (RPMI 1640:Mueller Hinton Broth:fetal bovine serum 100:5:20), broth microdilution, performed in triplicate): 16 µM
GSKPVRPPPPIRPRPPHPRL [Btr1]	–	0.25	–
GSRLMYLPPPPCSPYLHF [Baf1]	–	>64	–
NRPTYVPPPRPPHPRL [Ssp1]	2	–	–
SNKPRPQQVPPRPPHPRL [Vma1]	2	–	–
SNRPVYIPPPRSPHPRL [Bvo1]	–	>64	–
